The test system of series [1] is symptomatic knee osteoarthritis. As to the kind of experiment: 16-week randomized double blind placebo and comparator controlled trial (NMITLI OA stage I/2). In kind it is in vivo, patients. Here is the method: NMITLI OA stage I/2: The said formulation was evaluated in a randomized double blind placebo controlled, multicentric 16 week clinical trial in 245 patients with symptomatic knee osteoarthritis. This was This was a 7 arm exploratory study, aimed to evaluate the efficacy and safety of 5 multiplant formulations using Shunthi-Guduchi as a common platform formulation in all. Glucosamine was the positive comparator.
Glucosamine was the positive comparator in this study.
The clinical trials are conducted on the following basis: • Randomized, Double Blind, parallel efficacy, Placebo & Comparator controlled study • 245 patients in a 7 arm (5 ayurvedic arms coded as A-E, placebo-1, Glucosamine-1) study of 16 weeks duration. • 35 patients in each arm • Monitored pain rescue medication (oral paracetamol) permitted on SOS basis • Intent to treat analysis with last observation carried forward • All arms well-matched at baseline for demographics and efficacy.

Another series concerns OA cartilage explants. As to the kind of experiment: Nitric oxide (NO) release by OA cartilage explants. In kind it is cell-based, human.
The subject of series [2] is human OA cartilage explants. The experiment in a line: Glycosaminoglycan (GAG) release from human OA cartilage explants. The series is classed as cell-based. The following applies: for Percent control GAG release: control = 100%. Here is the method: Aqueous extracts of each capsule were freshly prepared as required. Contents of each capsule were solubilized in distilled water (10 mG/mL) by limited autoclaving. Each extract was filter sterilized prior to addition to cartilage explants at the required final concentration. This method of herbal extract preparation gave reproducible sterility and biological activity (Sumantran et al, 2007).
Patients (age 55-75 years) suffered from chronic osteoarthritis (OA) for 5-15 years prior to knee replacement surgery. Cartilage integrity was recorded by macroscopic and microscopic examination, using the Outerbridge scale. Only non-calcified, grade 1-2 articular cartilage from the lateral femoral condyles was used (Outerbridge 1961).
OA cartilage explants were cultured as described earlier (Sumantran et al, 2007). Briefly, explants were treated for 24 hours with/without sterile aqueous extracts of each capsule, and re-fed with growth media without herbal extract every two days for eight days. Conditioned media (CM) samples from each explant were collected prior to each re-feed. All CM samples per OA patient were thawed and assayed for GAG and NO levels simultaneously. Aggrecan assays were done after analysis of the GAG release data.
Total GAG levels in CM samples were measured by the dimethylmethylene blue assay using Chondroitin sulphate as a standard (Hoemann et al, 2002). NO levels in CM samples were estimated using the Griess reagent.
GAG content is expressed as microgram equivalents of Chondroitin sulphate. NO is expressed in micromoles/mG of explant/mL of CM. Units of Aggrecan are micrograms/mG of explant/mL of CM. Each marker is measured at each time point for each CM sample derived from each patient.
Levels of GAG, NO, or aggrecan levels in CM samples from explants at each time, point, per patient, treated with/without drug; were tested for statistical significance at the 95% confidence level using the Students 2 tailed t-test for paired samples. We calculated the effect of drug extracts in each CM sample, at each time point, per patient sample; using the ratio shown below:
Long-term versus Short-term activity: Long-term chondroprotective or anti-inflammatory activity is the ability of a drug to cause a statistically significant decrease in levels of GAG, aggrecan, or NO release by OA cartilage explants, relative to controls. This effect must be observed for at least 3 of the 4 time points during in vitro culture. Short-term activity is similar, but is detected at only 1 or 2 of the 4 time points tested.
In explant model of OA cartilage damage, GAG released by cartilage explants for 5 time points after a 24 hour drug treatment was measured. The effect on GAG release from cartilage explants of six OA patients treated with/without aqueous extracts of formulations C and C+G (100 microg/mLeach) was studied. […] Glucosamine and celecoxib each caused a statistically significant, 25% decrease in GAG release at time point 4, compared to controls.

The subject of series [3] is human OA cartilage explants. As to the kind of experiment: Aggrecan release from human OA cartilage explants. In kind it is cell-based.
Source text: The kit uses a mixture of monoclonal antibodies to different epitopes of aggrecan, thereby ensuring sensitive and rapid estimation of aggrecan.
The test system of a further series is symptomatic OA knees. The experiment in a line: Phase II 24-week comparator controlled trial of equivalence. The following applies: 24 weeks. In kind it is in vivo, patients. Further details: W_DIFF, mean change between baseline and completion (Mean ± SD) / W_TOTAL, mean change between baseline and completion (Mean ± SD) / W_PAIN, mean change between baseline and completion (Mean ± SD) / W_STIFF, mean change between baseline and completion (Mean ± SD): scale not given here. The text has this:
• Phase II, Randomized, double blind, comparator (Celecoxib & Glucosamine) controlled, multicentric trial of equivalence. • Study Duration-24 weeks • Sample size (statistically powered 80% with α<0.05)—440 patients with symptomatic OA knees • 4 arm-2 Ayurvedic Interventions (C, C+) Celecoxib & Glucosamine, parallel efficacy study • 110 patients in each arm • No rescue medication permitted

In series [4] the test system is Carrageenan induced rat paw edema. The experiment in a line: Carrageenan induced rat paw edema (acute anti-inflammatory). The series is classed as in vivo, wistar rats. The following applies: anti-inflammatory studies, model not specified. The method, then: (§1) Analgesic and anti-inflammatory activity studies for crude drug powders or extracts and formulations there off were carried out in known animal models. Central (formalin-induced model) and peripheral (acetic acid induced model) analgesic activities were studied in albino mice, while wistar rats were used for acute (carrageenan induced paw edema model) and sub-acute (turpentine oil-induced granuloma pouch model) anti-inflammatory activity. Suitable positive and negative controls were used for the studies. The data obtained is statistically significant (P value<0.05) and reproducible.
Various doses of test sample (100, 200 and 400 mg/Kg p.o.) and standard Indomethacin (10 mg/kg p.o.) were administered to different groups of rats. Acute inflammation was induced half an hour after the above treatment by injection of 0.1 ml of freshly prepared 1% (in water) suspension of Carrageenan sodium in sub-planter region of rat right hind paw. Paw volume was measured by plethysmographic method initially and then at 1, 2, 3, 4, 24, 48 and 72 hrs after carrageenan injection.
Background: The carrageenan paw model is a standard test of acute inflammation.

Series [5] has as its system Acetic acid induced writhing in mice. As to the kind of experiment: Acetic acid induced writhing (peripheral analgesic model). In kind it is in vivo, albino mice. The method, then: as §1
The total number of writhings following intra-peritoneal administration of 0.6% acetic acid, 10 ml/Kg body weight was recorded for 20 minutes, starting 10 minutes after injection. The animals were pre-treated with test samples (100, 200 and 400 mg/Kg p.o.) 30 minutes prior to above treatment, simultaneously using Aspirin (30 mg/kg p.o.) as a positive control.
On the technique in general: An intraperitoneal irritant provokes the stretching counted in writhing tests.

Series [6] deals with active Rheumatoid arthritis (RA). The experiment in a line: NMITLI RA stage I/1, 24-week study. In kind it is in vivo, patients. The following applies: week 24. The text has this:
NMITLI RA STAGE I/1: A randomized double blind comparator controlled parallel efficacy multicentric 24-week study in patients with active Rheumatoid arthritis (RA). In this study, formulation B and a proprietary ayurvedic formulation were compared to Hydroxychloroquine (HCQS), which is a popular DMARD (Disease Modifying Anti Rheumatoid Drug) in modern medicine rheumatology. As a complex painful inflammatory polyarticular disease, several efficacy variables, both clinical and laboratory were used to evaluate efficacy—Joint Counts for pain/tenderness and swelling, pain VAS, Patients Global assessments by the patient and physician, Health Assessment Questionnaire (a validated instrument for functional ability for Indian use), ESR, CRP and cytokines markers.
At baseline, all the groups were matched well in several demographic and efficacy measures. […] The overall safety of Ayurvedic formulations was better than HCQS.

The subject of series [7] is arachidonic acid (AA) induced platelet activation in human whole blood. The following applies: read-out: anti-platelet activity IC(50); cited from earlier work.
The test system of a further series is mouse bone marrow. The following applies: test drugs 2000 mg/kg oral; cyclophosphamide 75 mg/kg i.p.
Setting [8] is: time point 3, controls set at 100%.
[9] abbreviates: time point 4, controls set at 100%.

Where two headings read alike, the source gives them in different places.

Procedure for mouse bone marrow: Assessment of genotoxicity using mouse bone marrow micronucleus test and Salmonella reverse mutation test was carried out according to OECD guidelines No. 474 and 471 respectively.
Genotoxicity study was carried out using mammalian bone marrow micronucleus test with the limit test at a single dose level of 2000 mg/kg body weight. The test drug was suspended in 1% CMC (carboxy methyl cellulose) and administered orally to the experimental animals. Control animals received 1% CMC alone. […] Treatment was given for two consecutive days at 0 h and 24 h. […] All the mice were sacrificed at 6th hr. after the last treatment (30th hr. after first dose) and femur bones were excised and bone marrow contents were flushed with fetal calf serum. Bone marrow cells were centrifuged spread as a smear on glass slide and stained using Giemsa stain and May-Grunwald stain. […] Minimum 2000 PCEs were scored from each animal. All the slides were coded prior to scoring and decoded after completion of scoring.

`N[C@H]1C(O)O[C@H](CO)[C@@H](O)[C@@H]1O` (stereo partly drawn) [Glucosamine]: the “Daily consumption Paracetamol, Mean, AVR_TOTAL” value in series [1] (all visits) was determined as 1.7950. Further, in [1] (baseline), the “PATG (1-5 grades), baseline mean” value was 3.52 grades; the “PainVAS (0-100 mm), baseline mean” value came to 64.8 mm; the “WOMAC Pain (0-20 score), baseline mean” value is reported as 8.0 score. For the same compound, in [1] (over 16 weeks), the “PATG, mean of percent change from baseline” value stood at 15.4%; the “PainVAS, mean of percent change from baseline” value came out at 21%; the “WOMAC Pain, mean of percent change from baseline” value is reported as 14.2%. Moreover, the “Daily consumption Paracetamol, Mean, AVR_PAR3” value in [1] (visit 3) was 2.0110. In addition, in series [1] (visit 4), the “Daily consumption Paracetamol, Mean, AVR_PAR4” value is 1.9038. The “Daily consumption Paracetamol, Mean, AVR_PAR5” value in series [1] (visit 5) is given as 1.9863. In addition, the “Daily consumption Paracetamol, Mean, AVR_PAR6” value in series [1] (visit 6) came to 1.8846. Moreover, the “Daily consumption Paracetamol, Mean, AVR_PAR7” value in series [1] (visit 7) is listed as 1.3516. Moreover, in the series on OA cartilage explants, the “Nitric oxide (NO) release, decrease” value is “No significant”. For the same compound, the “Nitric oxide (NO) release, decrease” value with OA cartilage explants (listed as gulosamine) is recorded as “did not significantly decrease”. Further, the “Glycosaminoglyan (GAG) release, decrease” value in series [2] (long term = at least 3 of 4 time points, short term = 1 or 2) was “Short term”. For the same compound, the “Percent control GAG release” value in series [2] (time point 1, 100 microg/mL) was determined as 118.96 ± 34.74%. Besides, the “Percent control GAG release” value in series [2] (time point 2, 100 microg/mL) is given as 91.70 ± 16.55%. Moreover, the “mean decrease of GAGs release relative to control explants” value in series [2] (time point 3) is reported as 26%. Besides, the “Percent control GAG release” value in series [2] (time point 3, 100 microg/mL) was found to be 86.52 ± 19.36%. Also, the “mean decrease in levels of GAG and aggrecan release relative to controls” value in [2] (time point 3, both markers) is 25-35%. Moreover, in series [2] (setting [8]), the “levels of GAG released compared to controls (FIG. 1)” value worked out at 73.72±9.69%. Moreover, in [2] (time point 4), the “decrease in GAG release compared to controls” value amounted to 25% and the “mean decrease of GAGs release relative to control explants” value was determined as 20%. Further, the “Percent control GAG release” value in series [2] (time point 4, 100 microg/mL) is 76.01 ± 19.96%. For the same compound, in [2] (setting [9]), the “levels of GAG released compared to controls (FIG. 2)” value is on record as 81.38±14.35%. For the same compound, the “Percent control GAG release” value in [2] (time point 5, 100 microg/mL) is 87.15 ± 20.83%. Further, the “Aggrecan (AGG) release, decrease” value in series [3] was “Significant”. The “mean decrease of Aggrecan release relative to control explants” value in series [3] (time point 3) turned out to be 34%. Besides, the “levels of aggrecan released compared to controls (FIG. 1)” value in series [3] (setting [8]) worked out at 66.13±21.81%. Besides, the “Aggrecan release by cartilage explants” value in series [3] (time point 4, 5 patients) is listed as “not significantly decreased”. Further, the “levels of aggrecan released compared to controls (FIG. 2)” value in [3] (setting [9]) is 86.07±21.71%. In the series on symptomatic OA knees, the “PainVAS, mean change between baseline and completion (Mean ± SD)” value is on record as −2.45 ± 2.23; the “W_DIFF, mean change between baseline and completion (Mean ± SD)” value is recorded as −8.12 ± 10.89; the “W_PAIN, mean change between baseline and completion (Mean ± SD)” value is listed as −2.72 ± 3.26; the “W_STIFF, mean change between baseline and completion (Mean ± SD)” value is −0.49 ± 1.61. Also, the “W_TOTAL, mean change between baseline and completion (Mean ± SD)” value in the series on symptomatic OA knees is −11.33 ± 13.75. Besides, the “minimum dose with significant anti-inflammatory activity” value in [4] was “devoid of any anti-inflammatory activity”. Also, in series [5], the “dose with significant peripheral analgesic activity” value was determined as 400 mg/kg.
Turning to `CCN(CCO)CCCC(C)Nc1ccnc2cc(Cl)ccc12` (stereo not drawn) [HCQS, Hydroxychloroquine], the “efficacy in RA, individual group analysis” value in series [6] was “several significant improvements”.
In the case of `Cc1ccc(-c2cc(C(F)(F)F)nn2-c2ccc(S(N)(=O)=O)cc2)cc1` [Celecoxib], the “Percent control GAG release” value in series [2] (time point 1, 100 microg/mL) came out at 90.24 ± 25.71%. In series [2] (time point 2, 100 microg/mL), the “Percent control GAG release” value was found to be 84.87 ± 28.54%. Besides, the “Percent control GAG release” value in series [2] (time point 3, 100 microg/mL) came to 87.83 ± 28.99%. In addition, the “decrease in GAG release compared to controls” value in series [2] (time point 4) was 25%. In addition, the “Percent control GAG release” value in [2] (time point 4, 100 microg/mL) is 74.81 ± 31.83%. The “Percent control GAG release” value in series [2] (time point 5, 100 microg/mL) is recorded as 89.42 ± 31.98%. In the series on symptomatic OA knees, the “PainVAS, mean change between baseline and completion (Mean ± SD)” value is on record as −1.82 ± 1.95; the “W_DIFF, mean change between baseline and completion (Mean ± SD)” value was −6.93 ± 9.88; the “W_PAIN, mean change between baseline and completion (Mean ± SD)” value is −1.89 ± 3.01; the “W_STIFF, mean change between baseline and completion (Mean ± SD)” value was −0.34 ± 1.91. Moreover, the “W_TOTAL, mean change between baseline and completion (Mean ± SD)” value in the series with symptomatic OA knees is −9.17 ± 13.05. For the same compound, in series [4], the “minimum dose with significant anti-inflammatory activity” value stood at 200 mg/kg. In addition, the “dose with significant peripheral analgesic activity” value in series [5] stood at 400 mg/kg.
Take `CC(=O)Oc1ccccc1C(=O)O` [aspirin]: the IC50 in [7] was 20 µM.
On to `O=P1(N(CCCl)CCCl)NCCCO1` (stereo not drawn) [cyclophosphamide], for which, in the series on mouse bone marrow, the “micronucleus induction / mutagenic effect” value is listed as “significant increase in percent micronuclei: PCE ratio”.

The values are drawn from US20120021077A1, “SYNERGISTIC HERBAL COMPOSITION FOR TREATMENT OF RHEUMATIC AND MUSCULO-SKELETAL DISORDERS (RMSDS)” (priority 2007, published 2012).
